The target in assay [1] is native EPSPS from E. coli (Escherichia coli, UniProt P0A6D3). Conditions: read-out: apparent Ki for glyphosate; cited from earlier work.
For assay [2], the system named is E. coli SR481 cells transformed with pMON45364 (Ei.EPSPS:glypR). Briefly: growth rates of transgenic E. coli on glyphosate containing media. Conditions: growth (O.D.595) in minimal M9 media with 0.0, 0.5, 1.5 or 5.0 mM glyphosate; cells expressing EPSPS of tolerant biotype (pMON45364) versus sensitive biotype (pMON45365); Figure 3. The class given is cell-based. An excerpt: The EPSP synthase mature protein-coding regions isolated from the glyphosate tolerant and glyphosate sensitive E. indica biotypes, can be directly compared for their ability to confer tolerance to glyphosate in transgenic hosts. […] This was inserted by ligation to facilitate expression and cloning at the ATG start codon of an open reading frame.
These sequences are employed in RT-PCR reactions to generate expression cassettes suitable for cloning into pMON45337 cut with the restriction enzymes Nde1 and EcoR1. RT-PCR reactions are performed with total RNAs extracted from frozen crown samples using the RNeasy Plant Mini Kit (cat.# 74904, Qiagen Inc., Valencia, CA) per manufacturer's instructions. Oligo·dT-primed first-strand cDNAs are prepared from 5 µg samples of total RNA using the Superscript Pre-Amplification System (cat.# 18089-011, Life Technologies, Rockville, MD) per manufacturer's instructions. Two µl of first-strand cDNA are then used to generate E. indica EPSP synthase expression cassettes via polymerase chain reaction. The oligonucleotides are added in 50 µl RT-PCR reactions at a final concentration of 0.4 µM. […]

The target of assay [3] is EPSPS activity in extracts from the glyphosate tolerant E. indica biotype (Eleusine indica, UniProt Q95AK1). The conditions noted are these: read-out: I50 (glyphosate); tolerant biotype plant extract; 0.5 mM PEP, 1 mM shikimate-3-phosphate, 25°C; Figure 4.
Procedure: Preparation of extracts and radiometric EPSP synthase assays are performed using methods adapted from published procedures (Padgette et al., J. Biol. Chem. 266:22364-22369 (1991). Crown regions are dissected from whole plants, pulverized under liquid nitrogen with a mortar and pestle, then stored at -80°C prior to extraction. Homogenates are prepared from 0.5 g tissue per sample in 25 ml extraction buffer (100 mM TrisCl, 10 % glycerol, 1 mM EDTA, 1 mM benzamidine, 1 mM dithiothreitol, 1 mM 4-(2-aminoethyl)-benzenesulfonyl floride HCl, 0.1 mM leupeptin, pH 7.4) at 4°C using a model PT3000 Polytron homogenizer (Brinkman Instuments Inc., Westbury, NY). Debris is removed by 0.2 µm filtration, then the resulting supernatant is concentrated and desalted using an Ultrafree-15 centrifugal filtration unit (cat.# UFV2-BGC-10, Millipore Corp., Bedford, MA). Final sample volumes are approximately 0.5 ml. Protein concentrations are determined spectrophotometrically using the Bio-Rad protein assay reagent (cat.#500-0006, Bio-Rad Laboratories, Hercules, CA). EPSPS specific activities are determined by assaying 10 µl extract at 25°C for 5- 15 min. […] Reactions are quenched with the addition of 50 µl 9:1 ethanol: 0.1 M acetic acid. […]
The target in assay [4] is T1, E. indica glypS EPSPS (Eleusine indica, UniProt Q95AK0).
T1 sequence (Q95AK0 1-445): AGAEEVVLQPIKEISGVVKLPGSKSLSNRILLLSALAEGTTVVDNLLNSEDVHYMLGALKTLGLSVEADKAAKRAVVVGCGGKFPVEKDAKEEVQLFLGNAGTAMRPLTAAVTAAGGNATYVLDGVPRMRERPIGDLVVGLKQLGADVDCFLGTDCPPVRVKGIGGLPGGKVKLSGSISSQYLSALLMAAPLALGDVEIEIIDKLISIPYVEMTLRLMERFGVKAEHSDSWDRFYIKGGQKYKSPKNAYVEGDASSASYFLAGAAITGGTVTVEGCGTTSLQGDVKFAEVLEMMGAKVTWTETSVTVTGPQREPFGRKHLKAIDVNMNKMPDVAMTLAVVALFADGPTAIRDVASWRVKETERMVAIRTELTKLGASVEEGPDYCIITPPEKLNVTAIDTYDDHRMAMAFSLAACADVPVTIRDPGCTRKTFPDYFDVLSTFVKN
The experiment in a line: enzyme kinetics, Km(PEP) and Ki (glyphosate). The conditions noted are these: apparent Km, saturating S3P. The class given is biochemical.
Procedure: Calculations, graphical representation, and statistical analysis of enzyme kinetic data are performed using GraFit version 3.0 software (Erithacus Software Ltd., Staines, U.K.).

Chain of EPSPS activity in extracts from the glyphosate tolerant E. indica biotype (Q95AK1 entry or part of it): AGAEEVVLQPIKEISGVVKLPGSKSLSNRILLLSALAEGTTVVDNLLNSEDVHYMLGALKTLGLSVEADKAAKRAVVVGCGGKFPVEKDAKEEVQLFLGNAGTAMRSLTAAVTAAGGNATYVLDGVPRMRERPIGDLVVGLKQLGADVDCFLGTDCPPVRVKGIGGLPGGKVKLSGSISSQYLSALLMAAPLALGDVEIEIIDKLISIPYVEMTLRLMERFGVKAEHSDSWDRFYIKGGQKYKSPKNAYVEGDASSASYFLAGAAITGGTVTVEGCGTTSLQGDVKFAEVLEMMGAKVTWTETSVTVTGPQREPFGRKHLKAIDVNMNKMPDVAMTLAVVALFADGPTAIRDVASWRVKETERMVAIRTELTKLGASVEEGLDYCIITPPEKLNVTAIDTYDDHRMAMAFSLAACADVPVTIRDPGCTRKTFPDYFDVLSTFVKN
Chain of native EPSPS from E. coli (P0A6D3 whole entry): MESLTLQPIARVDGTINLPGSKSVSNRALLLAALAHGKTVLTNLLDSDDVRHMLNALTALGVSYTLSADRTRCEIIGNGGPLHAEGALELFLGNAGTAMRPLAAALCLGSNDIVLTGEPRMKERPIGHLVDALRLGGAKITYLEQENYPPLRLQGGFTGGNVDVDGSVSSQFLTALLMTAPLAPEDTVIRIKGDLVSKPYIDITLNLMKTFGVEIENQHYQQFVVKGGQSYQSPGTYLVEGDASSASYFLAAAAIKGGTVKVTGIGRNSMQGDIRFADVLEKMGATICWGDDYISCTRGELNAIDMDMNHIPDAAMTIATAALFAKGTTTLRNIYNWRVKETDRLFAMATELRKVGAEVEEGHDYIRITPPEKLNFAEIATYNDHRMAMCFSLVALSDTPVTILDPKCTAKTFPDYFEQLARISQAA

With `O=C(O)CNCP(=O)(O)O` [glyphosate, N-phosphonomethylglycine], in assay [1], the Ki was 0.5 µM. Moreover, the “increase in tolerance to glyphosate” value in assay [2] is listed as “approximately three-fold”. For the same compound, in assay [3], the IC50 is roughly 16 µM.
Take `C=C(OP(=O)(O)O)C(=O)O` [PEP, phosphoenolpyruvate]: the KmPEP in assay [4] is 5 M.

Values taken from patent EP1582583A2 (priority 2000, dated 2001).
